Source: patent US11542492B2 (Celgene CAR LLC, priority 2009, dated 2023)

Legend:
[1] = biological target: T1, PDPK1 (Homo sapiens, UniProt O15530); assay: PDK1-OMNIA kinase assay (ST28-Sox peptide); assay type: biochemical; parameters: purchased Invitrogen, BPS or SignalChem P3001 (Invitrogen), 40080 (BPS), P14-10H (SignalChem); details: PDPK1 enzyme pre-incubated 30 min at 25° C. with compound; [ATP]=5 μM; ST28-Sox peptide substrate; read-out: Inhibition/Modification Designation (IC50, PDK1-OMNIA)
T1 sequence (O15530 1-556): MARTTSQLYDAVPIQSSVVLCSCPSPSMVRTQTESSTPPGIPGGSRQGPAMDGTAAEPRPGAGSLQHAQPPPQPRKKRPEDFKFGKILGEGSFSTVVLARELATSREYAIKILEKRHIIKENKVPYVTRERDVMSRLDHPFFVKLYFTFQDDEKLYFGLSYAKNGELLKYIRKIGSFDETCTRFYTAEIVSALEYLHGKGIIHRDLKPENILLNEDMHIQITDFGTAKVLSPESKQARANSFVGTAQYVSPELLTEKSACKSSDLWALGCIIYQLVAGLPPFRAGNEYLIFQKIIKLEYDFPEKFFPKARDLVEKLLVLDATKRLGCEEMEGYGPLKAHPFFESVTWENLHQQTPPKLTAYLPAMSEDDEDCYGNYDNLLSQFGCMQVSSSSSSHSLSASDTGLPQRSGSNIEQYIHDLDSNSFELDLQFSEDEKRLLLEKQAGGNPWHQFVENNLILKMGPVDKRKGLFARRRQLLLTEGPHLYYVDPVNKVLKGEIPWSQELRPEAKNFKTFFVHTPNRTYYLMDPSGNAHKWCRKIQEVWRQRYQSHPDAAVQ
Method: Briefly, a 10× stock of PDPK1 enzyme from Invitrogen (P3001) or BPS (40080) or SignalChem (P14-10H), 1.13×ATP (AS001A) and ST28-Sox peptide substrate (KNZ1281C) were prepared in 1× kinase reaction buffer consisting of 20 mM Tris, pH 7.5, 5 mM MgCl2, 1 mM EGTA, 5 mM β-glycerophosphate, 5% glycerol (10× stock, KB002A) and 0.2 mM DTT (DS001A). 5 μL of enzyme were pre-incubated in a Corning (#3574) 384-well, white, non-binding surface microtiter plate (Corning, N.Y.) for 30 min at 25° C. with a 0.5 μL volume of 50% DMSO and serially diluted compounds prepared in 50% DMSO. Kinase reactions were started with the addition of 45 […] of the ST28-Sox peptide substrate and monitored every 71 seconds for 30-60 minutes at λex360/λem485 in a Synergy4 plate reader from BioTek (Winooski, Vt.). At the conclusion of each assay, progress curves from each well were examined for linear reaction kinetics and fit statistics (R^2, 95% confidence interval, absolute sum of squares). Post-lag velocity (+10 minutes to 20+ minutes) from each reaction was estimated from the slope of a plot of relative fluorescence units vs time (minutes) and normalized to the no enzyme and no inhibitor control groups for % Inhibition. The resulting inhibition values were then plotted against inhibitor concentration to estimate IC50 from log [Inhibitor] vs Response, Variable Slope model in GraphPad Prism from GraphPad Software (San Diego, Calif.).
[Reagent] used in provisional protocol(s): Invitrogen—[PDPK1]=5-10 nM, [ATP]=5 μM and [ST28-Sox]=5 μM or 10 μM (ATP KMapp=4-6 μM); BPS—[PDPK1]=10-15 nM, [ATP]=5 μM and [ST28-Sox]=10 μM (ATP KMapp=3-5 μM); SignalChem—[PDPK1]=5-10 nM, [ATP]=5 μM and [ST28-Sox]=5 μM or 10 μM (ATP KMapp ND)

[2] = biological target: T2, HCV NS3/4A 1b protease enzyme (wild type) (Hepatitis C virus genotype 1b, UniProt P26663); assay: HCV protease FRET assay (IC50_APP), wild type NS3/4A 1b; assay type: biochemical
T2 construct: 10× stocks of NS3/4A protease enzyme from Bioenza (Mountain View, Calif.); purchased Bioenza
T2 sequence (P26663 1658-1711): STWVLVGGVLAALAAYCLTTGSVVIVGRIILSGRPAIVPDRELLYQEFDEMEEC
T2 sequence (P26663 1027-1657): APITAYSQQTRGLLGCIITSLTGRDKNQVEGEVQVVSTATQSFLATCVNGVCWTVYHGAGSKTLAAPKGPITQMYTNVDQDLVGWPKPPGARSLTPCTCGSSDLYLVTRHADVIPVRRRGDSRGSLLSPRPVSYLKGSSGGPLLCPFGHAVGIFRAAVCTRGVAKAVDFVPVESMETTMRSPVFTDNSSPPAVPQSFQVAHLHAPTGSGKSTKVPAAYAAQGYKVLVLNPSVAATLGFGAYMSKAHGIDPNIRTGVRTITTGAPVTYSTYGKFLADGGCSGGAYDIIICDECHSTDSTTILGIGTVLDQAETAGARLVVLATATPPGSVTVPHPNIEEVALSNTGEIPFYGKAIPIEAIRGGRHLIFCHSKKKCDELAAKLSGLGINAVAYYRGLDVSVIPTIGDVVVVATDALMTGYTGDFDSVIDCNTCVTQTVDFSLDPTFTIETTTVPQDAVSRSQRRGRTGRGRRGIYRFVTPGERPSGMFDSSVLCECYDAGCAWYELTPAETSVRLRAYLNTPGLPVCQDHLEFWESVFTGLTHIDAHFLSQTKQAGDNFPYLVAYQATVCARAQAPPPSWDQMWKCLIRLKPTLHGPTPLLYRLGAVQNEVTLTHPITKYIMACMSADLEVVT
Method: HCV Protease FRET Assay for WT and Mutated NS3/4A 1b Enzymes (IC50_APP).
The following protocol was used to generate “apparent” IC50 (IC50_APP) values as depicted in Table 6, below. Without wishing to be bound by any particular theory, it is believed that IC50_APP, contrasted with IC50 values, may provide a more useful indication of time-dependent inhibition, and are thus more representative of binding affinity. […] 5 μL of each enzyme were added to Corning (#3575) 384-well, black, microtiter plates (Corning, N.Y.) after spotting a 0.5 μL volume of 50% DMSO and serially diluted compounds prepared in 50% DMSO. Protease reactions were immediately started after enzyme addition with the addition of 45 μL of the FRET substrate and monitored for 60-90 minutes at λex485/λem520 in a Synergy plate reader from BioTek (Winooski, Vt.). At the conclusion of each assay, progress curves from each well were examined for linear reaction kinetics and fit statistics (R^2, 95% confidence intervals, absolute sum of squares). Initial velocity (0 minutes to 15+ minutes) from each reaction was determined from the slope of a plot of relative fluorescence units vs time (minutes) and then plotted against inhibitor concentration as a percent of the no inhibitor and no enzyme controls to estimate apparent IC50 from log [Inhibitor] vs Response. (Variable Slope model in GraphPad Prism from GraphPad Software (San Diego, Calif.).)

Structure (SMILES)	IC50 [1] [nM]	IC50 [2] [nM]
C=C[C@@H]1C[C@]1(NC(=O)[C@@H]1CC(OC(=O)N2Cc3cccc(F)c3C2)CN1C(=O)CNC(=O)[C@H]1CCC(=O)O1)C(=O)NS(=O)(=O)C1CC1 (stereo partly drawn) [XVI-12, (5S)-5-((1R,2S)-1-(cyclopropylsulfonylcarbamoyl)-2-vinylcyclopropylcarbamoyl)-1-(2-((R)-5-oxotetrahydrofuran-2-carboxamido)acetyl)pyrrolidin-3-yl 4-fluoroisoindoline-2-carboxylate]		100 to 1000
C=C[C@@H]1C[C@]1(NC(=O)[C@@H]1CC(OC(=O)N2Cc3cccc(F)c3C2)CN1C(=O)[C@H](CCNC(=O)[C@H]1CCC(=O)O1)NC(=O)OC(C)(C)C)C(=O)NS(=O)(=O)C1CC1 (stereo partly drawn) [XVI-10, (5S)-1-((S)-2-(tert-butoxycarbonylamino)-4-((R)-5-oxotetrahydrofuran-2-carboxamido)butanoyl)-5-((1R,2S)-1-(cyclopropylsulfonylcarbamoyl)-2-vinylcyclopropylcarbamoyl)pyrrolidin-3-yl 4-fluoroisoindoline-2-carboxylate]		100 to 1000
C=C[C@@H]1C[C@]1(NC(=O)[C@@H]1CC(OC(=O)N2Cc3cccc(F)c3C2)CN1C(=O)CNC(=O)[C@@H]1CCC(=O)O1)C(=O)NS(=O)(=O)C1CC1 (stereo partly drawn) [XVI-13, (5S)-5-((1R,2S)-1-(cyclopropylsulfonylcarbamoyl)-2-vinylcyclopropylcarbamoyl)-1-(2-((S)-5-oxotetrahydrofuran-2-carboxamido)acetyl)pyrrolidin-3-yl 4-fluoroisoindoline-2-carboxylate]		100 to 1000
C=C[C@@H]1C[C@]1(NC(=O)[C@@H]1CC(OC(=O)N2Cc3cccc(F)c3C2)CN1C(=O)[C@H](CNC(=O)[C@H]1CCC(=O)O1)NC(=O)OC(C)(C)C)C(=O)NS(=O)(=O)C1CC1 (stereo partly drawn) [XVI-20, (5S)-1-((S)-2-(tert-butoxycarbonylamino)-3-((R)-5-oxotetrahydrofuran-2-carboxamido)propanoyl)-5-((1R,2S)-1-(cyclopropylsulfonylcarbamoyl)-2-vinylcyclopropylcarbamoyl)pyrrolidin-3-yl 4-fluoroisoindoline-2-carboxylate]		1 to 10
COC1=CC(=O)CC(C(=O)Nc2cccc(Nc3ncc(Br)c(NCCCNC(=O)C(C)(C)C(N)=O)n3)c2)C1 (centres unmarked) [XI-30]	10 to 100	
CC(C)(C(N)=O)C(=O)NCCCNc1nc(Nc2ccc(CCC(=O)N3C[C@H]4C[C@@H]3C(=O)O4)cc2)ncc1Br [XI-40]	< 10	
C=C[C@@H]1C[C@]1(NC(=O)[C@@H]1CC(OC(=O)N2Cc3cccc(F)c3C2)CN1C(=O)[C@H](CCNC(=O)[C@@H]1CCC(=O)O1)NC(=O)OC(C)(C)C)C(=O)NS(=O)(=O)C1CC1 (stereo partly drawn) [XVI-11, (5S)-1-((S)-2-(tert-butoxycarbonylamino)-4-((S)-5-oxotetrahydrofuran-2-carboxamido)butanoyl)-5-((1R,2S)-1-(cyclopropylsulfonylcarbamoyl)-2-vinylcyclopropylcarbamoyl)pyrrolidin-3-yl 4-fluoroisoindoline-2-carboxylate]		100 to 1000
CC(C)(C(N)=O)C(=O)NCCCNc1nc(Nc2ccc(CCC(=O)N3C[C@@H]4C[C@H]3C(=O)O4)cc2)ncc1Br [XI-41]	< 10	
CC1(C)OC2C(=O)CC(C(=O)NCC(=O)Nc3cccc(Nc4ncc(Br)c(NCCCNC(=O)C(C)(C)C(N)=O)n4)c3)C2O1 (centres unmarked) [XI-32]	100 to 1000	
C=CC(=O)NCC(=O)Nc1cccc(Nc2ncc(Br)c(NCCCNC(=O)C(C)(C)C(N)=O)n2)c1 [XI-31]	10 to 100	
CC(C)(C(N)=O)C(=O)NCCCNc1nc(Nc2ccc(NC(=O)[C@@H]3CCC(=O)O3)cc2)ncc1Br [XI-43]	100 to 1000	
CC(C)(C(N)=O)C(=O)NCCCNc1nc(Nc2cccc(N3C(=O)CCC3=O)c2)ncc1Br [XI-46]	10 to 100	
CC(C)(C(N)=O)C(=O)NCCCNc1nc(Nc2cccc(NC(=O)CNC(=O)C3CCSC3=O)c2)ncc1Br (centres unmarked) [XI-24]	10 to 100	
CC(C)(C(N)=O)C(=O)NCCCNc1nc(Nc2cccc(NC(=O)CCC(=O)Oc3ccccc3)c2)ncc1Br [XI-25]	< 10	
CC(C)(C(N)=O)C(=O)NCCCNc1nc(Nc2cccc(NC(=O)C3CC(=O)CC(=O)C3)c2)ncc1Br [XI-29]	10 to 100	

The next lines start with results.

IC50 [1] [nM]	Structure (SMILES)	IC50 [2] [nM]
10 to 100	CC(C)(C(N)=O)C(=O)NCCCNc1nc(Nc2cccc(NC(=O)C3CCSC3=O)c2)ncc1Br (centres unmarked) [XI-23]	
10 to 100	CC(C)(C(N)=O)C(=O)NCCCNc1nc(Nc2cccc(NC(=O)CNC(=O)[C@@H]3CCC(=O)O3)c2)ncc1Br [XI-37]	
< 10	CC(C)(C(N)=O)C(=O)NCCCNc1nc(Nc2cccc(NC(=O)CCC(=O)N3CCC3=O)c2)ncc1Br [XI-55]	
100 to 1000	CC(C)(C(N)=O)C(=O)NCCCNc1nc(Nc2cccc(NC(=O)CC(NC(=O)CCCC(=O)NCCCOCCOCCOCCCNC(=O)CCCC[C@@H]3SC[C@@H]4NC(=O)N[C@@H]43)C(=O)N3C[C@H]4C[C@@H]3C(=O)O4)c2)ncc1Br (some centres unmarked) [XI-56]	
10 to 100	CC(C)(C(N)=O)C(=O)NCCCNc1nc(Nc2cccc(NC(=O)[C@@H]3CCC(=O)O3)c2)ncc1Br [XI-52]	
10 to 100	CC(C)(C(N)=O)C(=O)NCCCNc1nc(Nc2cccc(CCC(=O)N3C[C@H]4C[C@@H]3C(=O)O4)c2)ncc1Br [XI-45]	
10 to 100	CC(C)(C(N)=O)C(=O)NCCCNc1nc(Nc2ccc(NC(=O)[C@H]3CCC(=O)O3)cc2)ncc1Br [XI-42]	
10 to 100	CC(C)(C(N)=O)C(=O)NCCCNc1nc(Nc2cccc(NC(=O)c3ccc4c(c3)CCC(=O)O4)c2)ncc1Br [XI-36]	
< 10	CC(C)(C(N)=O)C(=O)NCCCNc1nc(Nc2cccc(NC(=O)CCC(=O)N3C[C@@H]4CC3C(=O)O4)c2)ncc1Br [XI-48]	
10 to 100	CC(C)(C(N)=O)C(=O)NCCCNc1nc(Nc2cccc(NC(=O)CCC(=O)NC3CCSC3=O)c2)ncc1Br (centres unmarked) [XI-34]	
10 to 100	CC(C)(C(N)=O)C(=O)NCCCNc1nc(Nc2cccc(NC(=O)[C@H]3CCC(=O)O3)c2)ncc1Br [XI-50]	
< 10	CON1C[C@H](NC(=O)CCC(=O)Nc2cccc(Nc3ncc(Br)c(NCCCNC(=O)C(C)(C)C(N)=O)n3)c2)C1=O [XI-47]	
10 to 100	CC(C)(C(N)=O)C(=O)NCCCNc1nc(Nc2cccc(CCC(=O)N3C[C@@H]4C[C@H]3C(=O)O4)c2)ncc1Br [XI-44]	
10 to 100	CC(C)(C(N)=O)C(=O)NCCCNc1nc(Nc2cccc(NC(=O)CC(N)C(=O)N3C[C@H]4C[C@@H]3C(=O)O4)c2)ncc1Br (some centres unmarked) [XI-33]	
